Measured values: ChEMBL document CHEMBL6087406, “2-Arylhydrazinylidene-3-oxo-3-polyfluoroalkylpropanoic acids as selective and effective carboxylesterase inhibitors with powerful antioxidant potential” (Bioorg Med Chem, 2024)
The source made the active and inactive calls. The rule behind the calls is not given here.

What was measured:
Liver carboxylesterase [1] = target: T1, Liver carboxylesterase (Sus scrofa, UniProt Q29550); assay: Inhibition of porcine liver carboxylesterase using 4-nitrophenylacetate as substrate assessed as release of 4-nitrophenol at 20 uM by spectrophotometric analysis relative to control; details: pig, porcine liver carboxylesterase (isolated enzyme), probe 4-nitrophenylacetate
T1 sequence (Q29550 whole entry): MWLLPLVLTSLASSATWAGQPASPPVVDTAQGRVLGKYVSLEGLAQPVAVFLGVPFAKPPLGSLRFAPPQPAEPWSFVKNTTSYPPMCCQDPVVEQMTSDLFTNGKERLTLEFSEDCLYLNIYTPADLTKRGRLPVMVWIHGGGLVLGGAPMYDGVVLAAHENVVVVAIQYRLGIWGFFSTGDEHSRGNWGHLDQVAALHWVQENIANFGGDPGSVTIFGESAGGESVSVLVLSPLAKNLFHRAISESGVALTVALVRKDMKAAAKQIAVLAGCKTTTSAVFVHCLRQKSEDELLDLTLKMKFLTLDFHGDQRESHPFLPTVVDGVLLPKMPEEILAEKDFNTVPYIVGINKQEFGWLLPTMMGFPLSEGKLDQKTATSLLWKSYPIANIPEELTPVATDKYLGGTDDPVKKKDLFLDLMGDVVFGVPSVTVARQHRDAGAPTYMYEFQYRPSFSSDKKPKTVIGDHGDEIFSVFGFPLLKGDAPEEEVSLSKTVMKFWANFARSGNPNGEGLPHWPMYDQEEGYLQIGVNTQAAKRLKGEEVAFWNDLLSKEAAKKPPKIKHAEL

[2] = target: Acetylcholinesterase (Homo sapiens) (UniProt P22303); assay: Inhibition of human erythrocyte acetylcholinesterase using acetylthiocholine as substrate at 20 uM by Ellman's method relative to control
Acetylcholinesterase (Homo sapiens), sequence (P22303 whole entry): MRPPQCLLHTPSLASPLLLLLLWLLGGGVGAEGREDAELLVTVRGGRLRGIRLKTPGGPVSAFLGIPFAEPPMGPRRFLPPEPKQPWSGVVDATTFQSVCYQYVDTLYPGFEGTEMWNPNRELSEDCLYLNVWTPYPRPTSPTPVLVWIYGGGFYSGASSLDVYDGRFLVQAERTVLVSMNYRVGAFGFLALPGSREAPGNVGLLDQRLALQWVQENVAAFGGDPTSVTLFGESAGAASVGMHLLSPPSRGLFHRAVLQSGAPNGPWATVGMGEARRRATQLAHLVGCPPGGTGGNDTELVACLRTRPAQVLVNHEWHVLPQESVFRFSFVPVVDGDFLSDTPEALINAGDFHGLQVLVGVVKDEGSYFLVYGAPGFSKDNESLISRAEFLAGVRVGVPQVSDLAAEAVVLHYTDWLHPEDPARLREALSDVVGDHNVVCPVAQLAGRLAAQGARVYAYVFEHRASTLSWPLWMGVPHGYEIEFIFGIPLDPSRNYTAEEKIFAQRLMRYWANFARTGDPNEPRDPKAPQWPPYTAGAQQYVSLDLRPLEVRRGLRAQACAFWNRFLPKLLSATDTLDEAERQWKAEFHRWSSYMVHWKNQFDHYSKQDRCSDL

[3] = target: Cholinesterase (Equus caballus) (UniProt P81908); assay: Inhibition of equine serum butyrylcholinesterase using butyrylthiocholine as substrate at 20 uM by Ellman's method relative to control
Cholinesterase (Equus caballus), sequence (P81908 whole entry): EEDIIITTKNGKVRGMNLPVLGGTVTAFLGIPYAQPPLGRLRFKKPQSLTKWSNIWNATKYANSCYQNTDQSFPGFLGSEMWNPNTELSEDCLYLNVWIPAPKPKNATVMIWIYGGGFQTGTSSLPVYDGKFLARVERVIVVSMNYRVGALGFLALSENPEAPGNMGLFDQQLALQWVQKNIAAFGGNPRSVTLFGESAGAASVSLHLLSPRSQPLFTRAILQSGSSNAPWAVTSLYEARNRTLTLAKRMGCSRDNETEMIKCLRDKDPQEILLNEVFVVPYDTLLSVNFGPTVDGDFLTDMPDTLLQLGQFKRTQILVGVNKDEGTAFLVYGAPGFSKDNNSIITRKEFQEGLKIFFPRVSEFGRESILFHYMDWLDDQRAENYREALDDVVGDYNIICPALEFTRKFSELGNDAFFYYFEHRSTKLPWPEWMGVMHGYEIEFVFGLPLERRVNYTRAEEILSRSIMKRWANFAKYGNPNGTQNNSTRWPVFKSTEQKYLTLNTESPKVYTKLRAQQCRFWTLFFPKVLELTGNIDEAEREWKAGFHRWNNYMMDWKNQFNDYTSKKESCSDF

[4] = Antioxidant activity assessed as ABTS radical scavenging activity by measuring trolox equivalent antioxidant capacity after 1 hrs by UV/Vis microplate spectrophotometric analysis; assay type: functional
[5] = Antioxidant activity assessed as reduction in ABTS radical measured after 1 hrs by UV/Vis microplate spectrophotometric analysis; assay type: functional
[6] = Antioxidant activity assessed as trolox equivalent of FRAP radical scavenging activity measured after 1 hrs by spectrophotometric analysis; assay type: functional
[7] = Antioxidant activity assessed as trolox equivalent of ORAC radical scavenging activity at 10 uM measured for 2 hrs by AAPH based fluorescence microplate reader; assay type: functional
[8] = Antioxidant activity assessed as ORAC radical scavenging activity by measuring fold change in trolox equivalent at 10 uM measured for 2 hrs by AAPH based fluorescence microplate reader relative to trolox; assay type: functional
Liver carboxylesterase [9] = target: T1, Liver carboxylesterase; assay: Inhibition of porcine liver carboxylesterase using 4-nitrophenylacetate as substrate assessed as release of 4-nitrophenol by spectrophotometric analysis
[10] = Antioxidant activity against AAPH-induced oxidative stress in Sprague-Dawley rat erythrocytes assessed as membrane stabilizing activity by measuring hemolysis at 100 uM preincubated for 15 mins followed by AAPH addition and measured after 3 hrs by microplate reader analysis (reference value: 88.6 +/- 3.7%); assay type: functional, Erythrocyte; details: time 195 min, 3.25 h
[11] = Hemolytic activity in AAPH-induced Sprague-Dawley rat erythrocytes assessed as hemolysis at 100 uM measured after 3 hrs by microplate reader analysis relative to control; assay type: toxicity, cell-based, Erythrocyte; details: read-out: Activity
[12] = Antioxidant activity against AAPH-induced oxidative stress in Sprague-Dawley rat erythrocytes assessed as inhibition of lipid peroxidation by measuring fold change at 100 uM preincubated for 15 mins followed by AAPH addition and measured after 3 hrs by TBARS assay (reference value: 1); assay type: functional, Erythrocyte; details: time 195 min, 3.25 h
[13] = Metal chelating activity assessed as Fe2+-compound complex formation by measuring absorbance at 400 uM measured after 30 mins in presence of FeCl2.4H2O by UV-Vis spectroscopic analysis (reference value: 253 to 384 nanometer)
Liver carboxylesterase 1 = target: T2, Liver carboxylesterase 1 (Homo sapiens, UniProt P23141); assay: Inhibition of human CES1 using 4-nitrophenylacetate as substrate assessed as release of 4-nitrophenol by spectrophotometric analysis
T2 sequence (P23141 whole entry): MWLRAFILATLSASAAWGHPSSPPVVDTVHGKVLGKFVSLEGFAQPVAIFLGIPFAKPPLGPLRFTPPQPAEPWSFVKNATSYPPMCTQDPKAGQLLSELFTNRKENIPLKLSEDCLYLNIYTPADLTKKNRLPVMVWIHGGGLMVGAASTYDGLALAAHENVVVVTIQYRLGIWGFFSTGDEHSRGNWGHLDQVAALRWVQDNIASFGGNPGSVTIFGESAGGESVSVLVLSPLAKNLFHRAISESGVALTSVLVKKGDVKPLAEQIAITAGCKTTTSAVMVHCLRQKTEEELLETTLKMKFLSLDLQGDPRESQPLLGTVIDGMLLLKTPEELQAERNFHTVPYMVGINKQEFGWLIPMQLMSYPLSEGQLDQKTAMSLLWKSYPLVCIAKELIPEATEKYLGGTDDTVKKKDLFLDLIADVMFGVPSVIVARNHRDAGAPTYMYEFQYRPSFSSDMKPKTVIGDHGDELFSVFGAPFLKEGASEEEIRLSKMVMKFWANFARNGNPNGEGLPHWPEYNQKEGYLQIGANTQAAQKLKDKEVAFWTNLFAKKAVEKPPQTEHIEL

Cocaine esterase = target: T3, Cocaine esterase (Homo sapiens, UniProt O00748); assay: Inhibition of human CES2 using 4-nitrophenylacetate as substrate assessed as release of 4-nitrophenol by spectrophotometric analysis
T3 sequence (O00748 whole entry): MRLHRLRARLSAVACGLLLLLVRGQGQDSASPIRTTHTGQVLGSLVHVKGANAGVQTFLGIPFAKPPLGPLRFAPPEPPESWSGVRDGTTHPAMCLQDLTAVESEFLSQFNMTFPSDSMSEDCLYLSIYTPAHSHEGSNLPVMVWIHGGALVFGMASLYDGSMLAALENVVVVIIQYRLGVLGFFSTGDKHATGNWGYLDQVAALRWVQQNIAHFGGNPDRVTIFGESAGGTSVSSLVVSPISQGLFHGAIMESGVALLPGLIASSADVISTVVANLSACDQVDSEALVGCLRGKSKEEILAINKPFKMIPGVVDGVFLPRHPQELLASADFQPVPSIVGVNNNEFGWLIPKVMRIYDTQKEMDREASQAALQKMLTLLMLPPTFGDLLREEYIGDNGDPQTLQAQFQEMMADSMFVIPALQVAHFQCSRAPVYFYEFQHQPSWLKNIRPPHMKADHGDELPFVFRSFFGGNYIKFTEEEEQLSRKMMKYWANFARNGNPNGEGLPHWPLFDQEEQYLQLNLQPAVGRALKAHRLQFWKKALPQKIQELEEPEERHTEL

Liver carboxylesterase [14] = target: T1, Liver carboxylesterase; assay: Reversible mixed type inhibition of porcine liver carboxylesterase using 4-nitrophenylacetate as substrate assessed as inhibition constant of competitive component by Lineweaver-Burk plot analysis
Liver carboxylesterase [15] = target: T1, Liver carboxylesterase; assay: Reversible mixed type inhibition of porcine liver carboxylesterase using 4-nitrophenylacetate as substrate assessed as inhibition constant of non-competitive component by Lineweaver-Burk plot analysis
[16] = Metal chelating activity assessed as Fe2+-compound complex formation by measuring absorbance at 400 uM measured after 30 mins in presence of FeCl2.4H2O by UV-Vis spectroscopic analysis (reference value: 245 to 373 nanometer)
[17] = Metal chelating activity assessed as Fe2+-compound complex formation by measuring absorbance at 400 uM measured after 30 mins in presence of FeCl2.4H2O by UV-Vis spectroscopic analysis (reference value: 225 to 374 nanometer)

SMILES | inhibition [2] | inhibition [3] | Activity [4] | IC50 [5] | Activity [6] | Activity [7] | fold change (FC) [8] | IC50 (Liver carboxylesterase [9]) | further results
CC(=O)/C(=N/Nc1ccc(C(=O)O)cc1)C(=O)O | 5.8% | 8.2% | 1.25 | 10.3 µM | 0.41 | 2.2 | > 3 | – | inhibition at 20 µM (Liver carboxylesterase [1]): 18.6%
O=[N+]([O-])c1ccc(OP(=O)(O)Oc2ccc([N+](=O)[O-])cc2)cc1 | inactive | inactive | – | – | – | – | – | – | –
COc1ccc(N/N=C(\C(=O)O)C(=O)C(F)(F)C(F)F)cc1 | 4.2% | 3.5% | 1.8 | 10.2 µM | 1.9 | 3.73 | > 3 | 52100 nM | –
Cc1ccc(N/N=C(\C(=O)O)C(=O)C(F)(F)C(F)(F)F)cc1 | 10.2% | 15.5% | 1.45 | 9.9 µM | 1.71 | 3.7 | > 3 | 122 nM | –
O=C(O)/C(=N\Nc1ccc([N+](=O)[O-])cc1)C(=O)C(F)(F)F | – | – | – | – | 0.24 | – | > 3 | – | –
CCOC(=O)c1ccc(N/N=C(/C(C)=O)C(=O)O)cc1 | inactive | inactive | 1.36 | 10.2 µM | 0.19 | 0.47 | – | – | inhibition at 20 µM (Liver carboxylesterase [1]): 16.1%
Cc1ccc(N/N=C(\C(=O)O)C(=O)C(F)F)cc1 | 10.2% | inactive | 1.67 | 9.8 µM | 2.1 | 3.13 | > 3 | – | inhibition at 20 µM (Liver carboxylesterase [1]): 23.8%
CCOC(=O)c1ccc(N/N=C(\C(=O)O)C(=O)C(F)(F)F)cc1 | – | – | – | – | – | – | > 3 | – | –
COc1ccc(N/N=C(\C(=O)O)C(=O)C(F)(F)C(F)(F)C(F)(F)F)cc1 | 19.4% | 13.4% | 2.1 | 8.2 µM | 1.86 | 3.67 | > 3 | 96 nM | Activity [10]: 95.9%; hemolysis at 3 h, 100 µM [11]: 2%; fold change (FC) [12]: 0.63; Activity [13]: 271 nm
CC(=O)/C(=N/Nc1ccccc1)C(=O)O | 4.7% | inactive | 1.6 | 9.8 µM | 0.79 | 3.43 | > 3 | – | inhibition at 20 µM (Liver carboxylesterase [1]): 17.9%
Cc1ccc(N/N=C(\C(=O)O)C(=O)C(F)(F)C(F)(F)C(F)(F)C(F)(F)F)cc1 | 9.8% | inactive | 1.37 | 10.9 µM | 0.14 | 3.2 | > 3 | 42 nM | IC50 (Liver carboxylesterase 1): 102 nM; IC50 (Cocaine esterase): 109 nM; Ki (Liver carboxylesterase [14]): 18 nM; Ki (Liver carboxylesterase [15]): 27 nM
COc1ccc(N/N=C(/C(C)=O)C(=O)O)cc1 | – | – | – | – | 2.5 | 3.67 | > 3 | – | Activity [10]: 45.6%; hemolysis at 3 h, 100 µM [11]: 2%; fold change (FC) [12]: 0.24; Activity [16]: 263 nm
Cc1ccc(N/N=C(\C(=O)O)C(=O)C(F)(F)C(F)(F)C(F)(F)F)cc1 | 14.7% | 11.6% | 1.97 | 9.1 µM | 0.68 | 3.27 | > 3 | 47 nM | –
CC(=O)/C(=N/Nc1ccc(C)cc1)C(=O)O | – | – | – | – | 1.69 | 3.37 | > 3 | – | –
Cc1ccc(N/N=C(\C(=O)O)C(=O)C(F)(F)C(F)F)cc1 | inactive | 5.7% | 1.7 | 9.3 µM | 1.69 | – | > 3 | 5580 nM | –
O=C(O)/C(=N\Nc1ccccc1)C(=O)C(F)(F)F | 16.5% | 4% | 1.6 | 8.6 µM | 1.48 | 3.7 | > 3 | 750 nM | –
CCOC(=O)c1ccccc1N/N=C(\C(=O)O)C(=O)C(F)(F)C(F)(F)C(F)(F)C(F)(F)F | 24% | 13.7% | 0.02 | – | – | 1.7 | > 3 | 140 nM | –
CCOC(=O)c1ccccc1N/N=C(\C(=O)O)C(=O)C(F)(F)F | – | – | – | – | – | – | > 3 | – | –
Cc1c(C)c2c(c(C)c1O)CCC(C)(C(=O)O)O2 (configuration not stated) [TROLOX] | – | – | 1 | 20.4 µM | 1 | 1 | – | – | Activity [10]: 56.7%; fold change (FC) [12]: 0.85
Cc1ccc(N/N=C(\C(=O)O)C(=O)C(F)(F)F)cc1 | – | – | – | – | 2.63 | 3.03 | > 3 | – | IC50 (Liver carboxylesterase 1): 921 nM; IC50 (Cocaine esterase): 97 nM
COc1ccc(N/N=C(\C(=O)O)C(=O)C(F)(F)F)cc1 | – | – | – | – | 2.77 | 3.6 | > 3 | – | Activity [10]: 58.6%; hemolysis at 3 h, 100 µM [11]: 2%; fold change (FC) [12]: 0.64; Activity [17]: 267 nm
COc1ccc(N/N=C(\C(=O)O)C(=O)C(F)(F)C(F)(F)C(F)(F)C(F)(F)F)cc1 | 4.4% | 19.9% | 1.9 | 9.5 µM | 1.68 | 3.87 | > 3 | 297 nM | –
